Measurements as given in patent US9029337B2, “Modulation of factor 7 expression” (Isis Pharmaceuticals, Inc., priority 2007, dated 2015).
Strand notation (5' to 3'): a small letter for the sugar, then the base; units joined by * are phosphorothioate-linked, units joined directly phosphodiester-linked; [ ] holds rarer units or linkages, { } end groups; capitals alone tell only the bases. e = 2'-O-(2-methoxyethyl) (MOE); [5mC] = 5-methylcytosine; d = 2'-deoxy (DNA)

System: human Factor 7 mRNA
Test: Antisense inhibition of human Factor 7 mRNA in HepB3 cells, 50 nM antisense oligonucleotide, lipofectin
Type: cell-based
Conditions: for % Inhibition: lipofectin, 50 nM antisense oligonucleotide, approximately 24 hours, Factor 7 mRNA by real-time RT-PCR (RTS 2927), relative to untreated control
How it was run: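 Seeding density was 4,000 cells per well. Following roughly 24 hours of oligonucleotide treatment, RNA was extracted and Factor 7 message quantified using the RTS 2927 primer probe set. Levels were corrected for RIBOGREEN® total RNA and expressed against untreated controls.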

Row | Substance | % Inhibition | % Inhibition of human Factor 7 mRNA levels (gapmers targeted to nucleobases 4868 to 4899 of SEQ ID NO: 1, Table 8)
1 | 416484 (antisense eT*eA*e[5mC]*eA*eG*d[5mC]*d[5mC]*dT*d[5mC]*dA*dA*dA*d[5mC]*dA*dT*e[5mC]*eT*eA*eT*e[5mC]) [compound 416484] | 0% | –
2 | 416485 (antisense eG*eA*eG*e[5mC]*eT*dA*d[5mC]*dA*dG*d[5mC]*d[5mC]*dT*d[5mC]*dA*dA*eA*e[5mC]*eA*eT*e[5mC]) [compound 416485] | 7% | –
3 | 416486 (antisense eA*eT*eT*eG*eA*d[5mC]*dA*dA*dG*dG*dG*d[5mC]*dT*dG*dT*eG*eG*e[5mC]*eA*eG) [compound 416486] | 12% | –
4 | 416487 (antisense eG*e[5mC]*eA*eG*eG*dT*dG*d[5mC]*dT*d[5mC]*d[5mC]*d[5mC]*dA*dG*dG*eG*eT*e[5mC]*eT*e[5mC]) [compound 416487] | 39% | –
5 | 416488 (antisense e[5mC]*eA*eG*eG*eT*d[5mC]*d[5mC]*dT*d[5mC]*d[5mC]*d[5mC]*dA*d[5mC]*dT*dG*e[5mC]*eA*eG*e[5mC]*e[5mC]) [compound 416488] | 41% | –
6 | 416489 (antisense eG*eT*eG*e[5mC]*eA*dG*d[5mC]*dT*dT*dG*d[5mC]*d[5mC]*dA*dG*dG*eT*e[5mC]*e[5mC]*eT*e[5mC]) [compound 416489] | 38% | –
7 | 416490 (antisense eA*e[5mC]*eT*e[5mC]*eA*dG*d[5mC]*dA*dA*dG*dA*dG*dT*dG*d[5mC]*eA*eG*e[5mC]*eT*eT) [compound 416490] | 33% | –
8 | 416491 (antisense eG*eA*eG*eA*eA*dG*dG*dG*dT*dT*dG*d[5mC]*dA*dG*dG*e[5mC]*eA*eG*eG*eA) [compound 416491] | 2% | –
9 | 416492 (antisense eG*eG*eA*eT*e[5mC]*dA*dT*dT*d[5mC]*dT*dG*dG*d[5mC]*d[5mC]*d[5mC]*eT*eG*eA*eG*e[5mC]) [compound 416492] | 13% | –
10 | 416493 (antisense eT*e[5mC]*eT*eT*eG*dG*dG*dT*dG*dT*dG*dG*dA*dT*dG*eT*eA*eA*eA*eT) [compound 416493] | 0% | –
11 | 416494 (antisense e[5mC]*eA*eG*eA*eT*dT*dT*dA*dA*dA*d[5mC]*dT*dG*d[5mC]*dA*eG*eA*eT*eG*eA) [compound 416494] | 0% | –
12 | 416495 (antisense eT*e[5mC]*eT*eA*eG*dA*dA*dT*dT*d[5mC]*d[5mC]*dA*dA*dA*d[5mC]*e[5mC]*e[5mC]*e[5mC]*eT*eA) [compound 416495] | 0% | –
13 | 416496 (antisense e[5mC]*eA*eA*e[5mC]*eA*d[5mC]*dT*dT*d[5mC]*dA*dA*dA*dT*dA*d[5mC]*eG*eA*eT*e[5mC]*eT) [compound 416496] | 0% | –
14 | 416497 (antisense e[5mC]*eG*eT*eG*e[5mC]*dA*dG*dG*dT*dG*dT*dT*dA*dA*dG*eG*eT*eG*eT*eG) [compound 416497] | 0% | –
15 | 416498 (antisense eG*eG*e[5mC]*e[5mC]*eA*dG*dT*dG*dG*d[5mC]*d[5mC]*dA*dT*dG*d[5mC]*eA*eT*e[5mC]*e[5mC]*e[5mC]) [compound 416498] | 5% | –
16 | 416499 (antisense eG*eA*eG*eA*eG*d[5mC]*dT*dG*d[5mC]*dA*d[5mC]*d[5mC]*dT*dG*dG*e[5mC]*e[5mC]*eG*eG*e[5mC]) [compound 416499] | 7% | –
17 | 416500 (antisense e[5mC]*eT*eG*eA*eA*d[5mC]*dA*d[5mC]*d[5mC]*d[5mC]*d[5mC]*dA*dG*d[5mC]*dT*eG*eA*eG*eA*eG) [compound 416500] | 1% | –
18 | 416501 (antisense e[5mC]*eT*eG*e[5mC]*e[5mC]*d[5mC]*dT*dT*d[5mC]*d[5mC]*dA*d[5mC]*d[5mC]*dA*dA*eG*eT*eT*eT*eA) [compound 416501] | 18% | –
19 | 416502 (antisense eG*eT*eT*e[5mC]*eT*dT*dT*dG*dA*dA*dA*dA*dA*dT*dA*eA*eT*e[5mC]*e[5mC]*e[5mC]) [compound 416502] | 22% | –
20 | 416503 (antisense eT*eA*eG*e[5mC]*e[5mC]*dA*d[5mC]*d[5mC]*d[5mC]*d[5mC]*dG*d[5mC]*dG*dG*dG*e[5mC]*eT*eG*eG*e[5mC]) [compound 416503] | 0% | –
21 | 416504 (antisense eT*e[5mC]*eA*eG*eA*dA*dA*dA*dG*d[5mC]*dT*d[5mC]*dT*d[5mC]*dA*eA*eG*eA*eA*e[5mC]) [compound 416504] | 0% | –
22 | 416505 (antisense eG*e[5mC]*eA*eG*eA*dT*dT*dT*dG*d[5mC]*dA*dT*d[5mC]*dA*dG*eA*eA*eA*eA*eG) [compound 416505] | 45% | –
23 | 416506 (antisense e[5mC]*eT*eT*eT*eA*dA*dA*dA*dT*d[5mC]*dA*dG*dT*dT*dT*e[5mC]*eA*e[5mC]*eA*e[5mC]) [compound 416506] | 18% | –
24 | 416509 (antisense eA*eG*eG*eA*eG*d[5mC]*d[5mC]*d[5mC]*dG*dA*dG*dT*dT*d[5mC]*dT*eG*e[5mC]*eA*eG*eG) [compound 416509] | 56% | 60%

Row | Substance | % Inhibition | % Inhibition of human Factor 7 mRNA levels (gapmers targeted to nucleobases 4868 to 4899 of SEQ ID NO: 1, Table 8)
25 | 416510 (antisense eG*eA*e[5mC]*eG*eA*dG*dG*d[5mC]*d[5mC]*dT*d[5mC]*dA*dG*dG*dT*eG*eG*eA*e[5mC]*eG) [compound 416510] | 30% | –
26 | 416511 (antisense eT*eT*eG*e[5mC]*eT*dG*dG*dG*dA*dG*dG*dA*d[5mC]*dG*dA*eG*eG*e[5mC]*e[5mC]*eT) [compound 416511] | 35% | –
27 | 416512 (antisense eG*eA*e[5mC]*eG*eA*d[5mC]*d[5mC]*dT*dT*dT*dG*d[5mC]*dT*dG*dG*eG*eA*eG*eG*eA) [compound 416512] | 43% | –
28 | 416513 (antisense e[5mC]*eT*eG*eA*eT*dG*dT*dG*dA*dA*dA*dA*d[5mC]*d[5mC]*dG*eG*e[5mC]*eA*eT*eG) [compound 416513] | 37% | –
29 | 416514 (antisense eG*eT*eA*eT*eT*dT*dT*d[5mC]*dT*dG*dA*dT*dG*dT*dG*eA*eA*eA*eA*e[5mC]) [compound 416514] | 8% | –
30 | 416515 (antisense eT*eA*eG*eG*e[5mC]*dA*dT*dG*dA*d[5mC]*d[5mC]*dA*dT*d[5mC]*d[5mC]*eT*e[5mC]*eA*eA*eT) [compound 416515] | 39% | –
31 | 416516 (antisense eG*eT*eG*eA*eG*dA*dA*dT*dA*d[5mC]*dA*dA*d[5mC]*dA*dG*eA*eT*eG*eA*eG) [compound 416516] | 24% | –
32 | 416517 (antisense eG*eG*eG*eT*eG*d[5mC]*dA*dG*dT*dA*dG*d[5mC]*dA*dG*dA*eT*eG*e[5mC]*eA*eA) [compound 416517] | 23% | –
33 | 416518 (antisense eG*eG*eG*eT*eG*dA*d[5mC]*d[5mC]*dA*d[5mC]*dA*d[5mC]*dA*dT*dT*eT*e[5mC]*e[5mC]*eT*eG) [compound 416518] | 55% | –
34 | 416519 (antisense eA*eA*eA*eT*eA*dT*dG*dG*dG*dA*d[5mC]*d[5mC]*d[5mC]*dA*dA*eA*eG*eT*eG*eG) [compound 416519] | 9% | –
35 | 416520 (antisense e[5mC]*e[5mC]*e[5mC]*eT*e[5mC]*dT*dG*d[5mC]*dA*dA*dA*dT*dA*dT*dG*eG*eG*eA*e[5mC]*e[5mC]) [compound 416520] | 14% | –
36 | 416521 (antisense e[5mC]*eA*e[5mC]*e[5mC]*e[5mC]*d[5mC]*dA*d[5mC]*d[5mC]*dA*dG*dG*dT*dT*dG*eT*eG*e[5mC]*eA*e[5mC]) [compound 416521] | 36% | –
37 | 416522 (antisense eG*eG*e[5mC]*eT*eG*dA*dG*dA*dA*dT*dT*dG*d[5mC]*d[5mC]*d[5mC]*eA*eG*eG*eG*e[5mC]) [compound 416522] | 25% | –
38 | 416523 (antisense eT*e[5mC]*eT*e[5mC]*eG*dA*dG*dG*dG*d[5mC]*dT*dG*dA*dG*dA*eA*eT*eT*eG*e[5mC]) [compound 416523] | 18% | –
39 | 416524 (antisense eT*eA*eA*eT*eT*dT*dA*dA*dT*dA*dT*dT*d[5mC]*dA*dG*eA*eT*eG*eG*eT) [compound 416524] | 0% | –
40 | 416525 (antisense eT*eA*eT*eG*eA*dG*dT*d[5mC]*d[5mC]*dT*dT*d[5mC]*dT*dA*dG*eT*eG*eA*eA*eT) [compound 416525] | 5% | –
41 | 416526 (antisense eT*eG*eT*e[5mC]*e[5mC]*dA*d[5mC]*dA*dT*dG*dA*d[5mC]*d[5mC]*d[5mC]*d[5mC]*eA*e[5mC]*eA*eG*eG) [compound 416526] | 19% | –
42 | 416527 (antisense eG*eA*eG*e[5mC]*eT*dT*d[5mC]*d[5mC]*d[5mC]*dA*dA*dG*dT*dT*dG*eG*e[5mC]*eA*eG*eT) [compound 416527] | 49% | –
43 | 416528 (antisense eT*eG*eA*eT*eA*dA*dA*dA*d[5mC]*d[5mC]*dT*d[5mC]*dT*dG*dG*eA*e[5mC]*eA*e[5mC]*e[5mC]) [compound 416528] | 10% | –
44 | 416529 (antisense eG*eG*eG*e[5mC]*eT*dG*dA*dG*dA*d[5mC]*dT*dG*dA*dG*dG*eT*e[5mC]*eA*eG*e[5mC]) [compound 416529] | 18% | –
45 | 416530 (antisense eA*eG*eG*eG*eT*dA*dG*d[5mC]*d[5mC]*dT*dT*dT*dG*d[5mC]*d[5mC]*eT*eT*eG*eG*e[5mC]) [compound 416530] | 35% | –
46 | 416531 (antisense eA*eG*eA*eT*eG*dA*d[5mC]*d[5mC]*dA*dG*d[5mC]*dA*dG*dG*dA*eA*eG*e[5mC]*e[5mC]*eT) [compound 416531] | 19% | –
47 | 416532 (antisense eG*eG*eA*e[5mC]*e[5mC]*d[5mC]*dA*dG*dA*dT*dG*dA*d[5mC]*d[5mC]*dA*eG*e[5mC]*eA*eG*eG) [compound 416532] | 12% | –
48 | 416533 (antisense eG*e[5mC]*eA*eT*eT*d[5mC]*dT*dG*dG*dA*d[5mC]*d[5mC]*d[5mC]*dA*dG*eA*eT*eG*eA*e[5mC]) [compound 416533] | 41% | –
